This note sets out measurements from patent US8975291B2, “Indoles” (GlaxoSmithKline LLC, priority 2010, dated 2015).

The target in the experiment is T1, EZH2 within the PRC2 complex (Homo sapiens, UniProt Q15910).
T1 construct: FLAG; made in house; host or cells: Sf9 cells
Briefly: EZH2 methyltransferase scintillation proximity assay (SPA) with PRC2 complex. The class given is biochemical. Here is the method:
Compounds contained herein were evaluated for their ability to inhibit the methyltransferase activity of EZH2 within the PRC2 complex. Human PRC2 complex was prepared by co-expressing each of the 5 member proteins (FLAG-EZH2, EED, SUZ12, RbAp48, AEBP2) in Sf9 cells followed by co-purification. Enzyme activity was measured in a scintillation proximity assay (SPA) where a tritiated methyl group is transferred from 3H-SAM to a lysine residue on Histone H3 of a mononucleosome, purified from HeLa cells. Mononucleosomes were captured on SPA beads and the resulting signal is read on a ViewLux plate reader.
Part A. Compound Preparation
• 1. Prepare 10 mM stock of compounds from solid in 100% DMSO. • 2. Set up an 11-point serial dilution (1:3 dilution, top concentration 10 mM) in 100% DMSO for each test compound in a 384 well plate leaving columns 6 and 18 for DMSO controls. • 3. Dispense […] of compound from the dilution plate into reaction plates (Grenier Bio-One, 384-well, Cat #784075). Part B. Reagent Preparation Prepare the following solutions: • 1. 50 mM Tris-HCl, pH 8: Per 1 L of base buffer, combine 1 M Tris-HCl, pH 8 (50 mL) and distilled water (950 mL). • 2. […] 2× Enzyme Solution: Per 10 mL of 2× Enzyme Solution, combine 1× Assay Buffer and PRC2 complex to provide a final enzyme concentration of 10 nM. • 4. SPA Bead Suspension: Per 1 mL of SPA Bead Suspension, combine PS-PEI coated LEADSeeker beads (40 mg) and ddH2O (1 mL) to provide a final concentration of 40 mg/mL. • 5. 2× Substrate Solution: Per 10 mL of 2× Substrate Solution, combine 1× Assay Buffer (9728.55 uL), 800 ug/mL mononucleosomes (125 uL), 1 mM cold SAM (4 uL), and 7.02 uM 3H-SAM (142.45 uL; 0.55 mCi/mL) to provide a final concentration of 5 ug/mL nucleosomes, 0.2 uM cold SAM, and 0.05 uM 3H-SAM. • 6. 2.67× Quench/Bead Mixture: Per 10 mL of 2.67× Quench/Bead Mixture, combine ddH2O (9358 uL), 10 mM cold SAM (267 uL), 40 mg/mL Bead Suspension (375 uL) to provide a final concentration of 100 uM cold SAM and 0.5 mg/mL SPA beads. Part C. Assay Reaction in 384-well Grenier Bio-One Plates Compound Addition • 1. Dispense […] of 100× Compound to test wells (as noted above). • 2. Dispense […] of 100% DMSO to columns 6 & 18 for high and low controls, respectively. Assay • 1. […] Dispense 5 uL/well of 2× Enzyme Solution to columns 1-17, 19-24. • 3. Spin assay plates for ˜1 minute at 500 rpm. • 4. Stack the assay plates, covering the top plate. • 5. Incubate the compound/DMSO with the enzyme for 30 minutes at room temperature. • 6. Dispense 5 uL/well of 2× Substrate Solution to columns 1-24. • 7. Spin assay plates for ˜1 minute at 500 rpm. • 8. Stack the assay plates, covering the top plate. • 9. Incubate the assay plates at room temperature for 1 hour. Quench/Bead Addition • 1. Dispense 5 uL/well of the 3× Quench/Bead Mixture to columns 1-24. • 2. Seal the top of each assay plate with adhesive TopSeal. • 3. Spin assay plates for ˜1 minute at 500 rpm. • 4. Equilibrate the plates for >20 min. Read Plates • 1. Read the assay plates on the Viewlux Plate Reader utilizing the 613 nm emission filter with a 300 s read time. Reagent addition can be done manually or with automated liquid handler. • The final DMSO concentration in this assay is 1%. • The positive control is in column 6; negative control is in column 18. • Final starting concentration of compounds is 100 μM. Part D. Data Analysis
Percent inhibition was calculated relative to the DMSO control for each compound concentration and the resulting values were fit using standard IC50 fitting parameters within the ABASE data fitting software package.
(In a scintillation proximity assay essentially only radioactivity close to the scintillant gives light.)

Each structure is given as a SMILES string. Like-named read-outs stand apart in the source and are kept apart here.

T1 sequence (Q15910 whole entry): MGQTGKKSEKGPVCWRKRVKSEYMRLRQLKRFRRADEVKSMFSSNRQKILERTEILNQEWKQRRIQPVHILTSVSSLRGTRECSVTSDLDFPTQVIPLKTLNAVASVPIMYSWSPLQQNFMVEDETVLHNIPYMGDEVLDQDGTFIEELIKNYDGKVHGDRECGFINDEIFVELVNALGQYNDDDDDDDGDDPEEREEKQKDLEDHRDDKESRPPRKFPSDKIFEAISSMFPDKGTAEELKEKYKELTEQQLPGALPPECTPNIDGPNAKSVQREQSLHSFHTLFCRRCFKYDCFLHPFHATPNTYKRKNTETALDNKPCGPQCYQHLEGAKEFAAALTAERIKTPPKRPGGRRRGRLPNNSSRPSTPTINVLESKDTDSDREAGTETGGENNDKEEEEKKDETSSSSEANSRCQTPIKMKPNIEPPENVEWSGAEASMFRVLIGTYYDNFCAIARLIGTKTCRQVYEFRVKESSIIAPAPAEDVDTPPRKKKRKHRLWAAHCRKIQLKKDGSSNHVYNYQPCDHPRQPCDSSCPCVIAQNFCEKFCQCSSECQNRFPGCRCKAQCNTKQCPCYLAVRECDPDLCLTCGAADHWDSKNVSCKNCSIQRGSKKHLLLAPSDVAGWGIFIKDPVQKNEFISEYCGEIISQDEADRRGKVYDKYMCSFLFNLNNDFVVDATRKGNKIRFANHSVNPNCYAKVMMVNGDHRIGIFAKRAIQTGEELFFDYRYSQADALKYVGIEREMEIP
T1 sequence (O75530 whole entry partner): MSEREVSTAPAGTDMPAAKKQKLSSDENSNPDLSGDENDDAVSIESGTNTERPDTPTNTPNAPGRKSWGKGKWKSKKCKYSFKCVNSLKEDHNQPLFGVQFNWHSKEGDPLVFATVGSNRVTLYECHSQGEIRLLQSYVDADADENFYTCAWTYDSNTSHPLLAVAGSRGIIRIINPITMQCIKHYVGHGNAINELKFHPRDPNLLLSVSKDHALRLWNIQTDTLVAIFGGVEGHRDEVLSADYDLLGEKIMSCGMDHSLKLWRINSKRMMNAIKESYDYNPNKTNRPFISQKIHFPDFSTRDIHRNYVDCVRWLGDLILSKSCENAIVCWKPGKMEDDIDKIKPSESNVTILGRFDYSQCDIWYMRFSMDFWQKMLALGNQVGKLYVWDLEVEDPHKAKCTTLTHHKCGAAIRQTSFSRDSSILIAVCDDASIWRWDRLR
T1 sequence (Q15022 whole entry partner): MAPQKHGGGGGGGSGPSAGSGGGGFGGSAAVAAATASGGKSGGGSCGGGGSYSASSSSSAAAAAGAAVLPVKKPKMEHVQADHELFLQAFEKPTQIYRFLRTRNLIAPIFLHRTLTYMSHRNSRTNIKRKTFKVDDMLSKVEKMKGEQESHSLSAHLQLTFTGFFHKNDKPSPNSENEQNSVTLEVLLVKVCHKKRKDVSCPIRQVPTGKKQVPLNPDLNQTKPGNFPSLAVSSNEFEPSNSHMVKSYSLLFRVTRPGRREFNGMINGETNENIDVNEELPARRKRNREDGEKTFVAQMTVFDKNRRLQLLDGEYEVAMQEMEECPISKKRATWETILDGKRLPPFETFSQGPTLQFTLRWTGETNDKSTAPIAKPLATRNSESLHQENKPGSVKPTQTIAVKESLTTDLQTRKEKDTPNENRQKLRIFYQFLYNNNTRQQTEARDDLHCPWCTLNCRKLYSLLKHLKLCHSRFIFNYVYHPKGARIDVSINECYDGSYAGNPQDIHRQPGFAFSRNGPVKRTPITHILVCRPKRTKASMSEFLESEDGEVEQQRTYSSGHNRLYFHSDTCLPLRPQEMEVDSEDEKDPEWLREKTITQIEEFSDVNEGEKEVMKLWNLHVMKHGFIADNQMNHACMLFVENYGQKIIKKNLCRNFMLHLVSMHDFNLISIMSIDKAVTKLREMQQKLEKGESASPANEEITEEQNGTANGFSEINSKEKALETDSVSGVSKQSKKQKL
T1 sequence (Q09028 whole entry partner): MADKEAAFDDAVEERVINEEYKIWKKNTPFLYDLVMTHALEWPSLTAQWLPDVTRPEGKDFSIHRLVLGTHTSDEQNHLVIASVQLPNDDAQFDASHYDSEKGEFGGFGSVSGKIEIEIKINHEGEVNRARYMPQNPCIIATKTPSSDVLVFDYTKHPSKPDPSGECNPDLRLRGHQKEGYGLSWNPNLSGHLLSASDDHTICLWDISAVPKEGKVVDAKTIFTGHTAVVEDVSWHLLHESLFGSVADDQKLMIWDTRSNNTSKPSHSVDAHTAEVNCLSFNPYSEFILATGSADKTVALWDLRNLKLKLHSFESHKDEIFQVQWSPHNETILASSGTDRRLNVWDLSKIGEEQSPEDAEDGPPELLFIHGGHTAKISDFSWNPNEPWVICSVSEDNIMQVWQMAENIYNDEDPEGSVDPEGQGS
T1 sequence (Q6ZN18 whole entry partner): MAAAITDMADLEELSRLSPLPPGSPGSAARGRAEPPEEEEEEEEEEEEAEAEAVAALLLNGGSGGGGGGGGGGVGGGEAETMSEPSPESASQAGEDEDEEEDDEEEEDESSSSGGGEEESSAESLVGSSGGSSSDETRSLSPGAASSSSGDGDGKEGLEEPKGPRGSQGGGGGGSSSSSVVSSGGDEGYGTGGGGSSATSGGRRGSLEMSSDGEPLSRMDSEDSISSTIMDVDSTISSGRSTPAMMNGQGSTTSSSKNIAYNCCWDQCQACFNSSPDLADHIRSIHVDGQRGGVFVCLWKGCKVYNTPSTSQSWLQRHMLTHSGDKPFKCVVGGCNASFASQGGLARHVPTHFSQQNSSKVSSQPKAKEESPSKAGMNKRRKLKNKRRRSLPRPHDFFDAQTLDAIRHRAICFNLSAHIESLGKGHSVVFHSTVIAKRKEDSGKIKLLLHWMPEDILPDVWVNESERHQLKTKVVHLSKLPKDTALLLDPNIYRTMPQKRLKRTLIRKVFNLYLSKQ

Consider `Cc1cc(C)c(CNC(=O)c2cc(Nc3ccc(N4CCN(C)CC4)nc3)cc3c2c(C)cn3C(C)C)c(=O)[nH]1` [Example 361, N-[(4,6-dimethyl-2-oxo-1,2-dihydro-3-pyridinyl)methyl]-3-methyl-1-(1-methylethyl)-6-{[6-(4-methyl-1-piperazinyl)-3-pyridinyl]amino)-1H-indole-4-carboxamide], for which the IC50 (3H-SAM methyl transfer to Histone H3 of HeLa mononucleosomes, read-out: EZH2 pIC50 (converted)) is 0.055 µM. On to `CCC(C)n1cc(C)c2c(C(=O)NCc3c(C)cc(C)[nH]c3=O)cc(Br)cc21` (centres unmarked) [Ex 266, 6-bromo-1-(sec-butyl)-N-((4,6-dimethyl-2-oxo-1,2-dihydropyridin-3-yl)methyl)-3-methyl-1H-indole-4-carboxamide], for which the IC50 (EZH2 inhibition, foregoing or analogous assay, unit inferred, read-out: IC50) worked out at 0.025 µM.
